# Source: patent US20220404336A1, “COMPOSITIONS, METHODS AND USES FOR FREE FATTY ACID SCREENING OF CELLS AT SCALE” (priority 2019, published 2022)
# Entries after “also recorded” stand apart in the source; their conditions may differ. Where two headings read alike, the source gives them in different places.
# Columns and labels:
# [1] = tested on: human pancreatic islet cells; test: Toxicity against human pancreatic islet cells (C-peptide positive cell count); type: cell-based
# Experimental: (§1) Human pancreatic islets from a deceased donor (Islet Research Resource ID: SAMN15400953) were purchased from the Integrated Islet Distribution program, dissociated, and cultured as described previously ([…] and Wagner. Curr. Protocols in Chem. Biol. 6: 157-168). In brief, 384 well plates (Perkin Elmer, CellCarrier Ultra, #6057300) were coated in ECM 2-3 days before the start of the experiment. HTB-9 cells (ATTC, 5637) were seeded at 10K/well into the 384 well plates and grown to confluence. All culture media was aspirated and 50 ul/well of 20 mM NH4OH in PBS (Sigma) was added. The plates were incubated at 37 C for 6 minutes, after which the NH4OH was pipetted up and down 4-5 times before being aspirated. The wells were then filled with 50 ul/well PBS until seeding with human islets. Human islets were pelleted and dissociated with StemPro Accutase (Life Technologies, A11105-01) at 37 C for 20-25 minutes followed by pipetting to mix 5-7 times. The dissociated islets were resuspended in CMRL 1066 medium (CellGro, cat. no. 15-110-CV) supplemented with 10% FBS, 1× L-glutamine, and 1× penicillin/streptomycin, filtered through a nylon mesh to remove large cell aggregates, and seeded at 10K/well density in the coated 384w plate. These islets were maintained in full CMRL media at 37 C, 95% humidity, and 5% CO2 with media changes every third day. For testing of free fatty acids for toxicity against human pancreatic islet cells (FIG. 8), C2, C3, and C4 free fatty acids were incubated with human pancreatic islet cells at concentrations of 250 μM, 500 μM, and 1 mM for 120 hours with one media change at 72 hours. The islets were subsequently fixed with 3% paraformaldehyde for 20 minutes, permeabilized with 0.2% TritonX-100 for another 20 minutes, and blocked for 3 hours at RT in 2% BSA in PBS (SeraCare, AP-45100-80). The islets were stained with C-peptide antibody (Developmental studies hybridoma bank at University of Iowa) at 1:100 in 2% BSA/PBS overnight rocking at 4 C, washed with PBS three times followed by once with 1% BSA/PBS, and then incubated with 568 Goat anti-rat (Life technologies, A11077) at 1:1000 and Hoechst (Thermo Fisher Scientific) at 1:1000 for one hour at RT. These islets were then imaged with the Operetta CLS High Content Screening System (#HH16000000, Perkin Elmer). The number of C-peptide positive cells in each well was quantified using Harmony software (PerkinElmer) and used as a proxy for cell viability.
# MIN6 cells [2] = type: cell-based
# Experimental: For high throughput cell viability assay, cells were seeded in 384 well plates (Perkin Elmer, CellCarrier Ultra, #6057300) and treated for 24, 48 and 72 h with the FFA library. Just before readout, cell nuclei were stained with Hoechst (Thermo Fisher Scientific) for 1 h at 37° C. and imaged with the Opera Phenix High Content Screening System (#HH14000000, Perkin Elmer). Number of counted nuclei was determined with the image analysis software Harmony (PerkinElmer) and used as a proxy for cell viability. For low throughput validation experiments, cells were treated for 48 h with representative FFAs in CellCarrier-384 Ultra Microplates. Caspase 3/7 (Thermo Fisher Scientific, #C10423) activation and propidium iodide (Thermo Fisher Scientific, #P1304MP) staining were used to calculate the fraction of apoptotic cells and dead cells, respectively. Single cells were identified and counted after staining their nuclei with Hoechst. Fluorescence intensities were then measured and the threshold for Caspase 3/7 and propidium iodide positive staining was determined manually. Cell viability was calculated as the fraction of cells that were neither Caspase 3/7 nor propidium iodide positive.
# ATF4 and CHOP = test: Western blot, induction of the UPR; type: cell-based, mouse; conditions: MIN6 cells, BSA negative control
# Experimental: MIN6 cells were lysed (#9803, Cell Signaling Technology) in the presence of protease inhibitors (#05892791001, Roche) and phosphatase inhibitors (#04906837001, Roche). Protein concentrations were quantified with the Pierce BCA Protein Assay Kit (#23225, Thermo Fisher Scientific). NuPAGE LDS sample buffer (#NP0008, Thermo Fisher Scientific) was added to normalized protein lysates together with NuPAGE reducing agent (#NP0004, Thermo Scientific). Lysates were heated to 95° C. for 5 min prior to SDS-PAGE gel electrophoresis (NuPAGE MES SDS running buffer, Thermo Fisher Scientific, #NP0002). Proteins were transferred to a nitrocellulose membrane (#1704158, BioRad) with the Trans-Blot® Turbo™ Blotting System (#1704155, BioRad) according to the manufacturer's protocol. Membranes were blocked in 5% Nonfat Dry Milk (#9999S, Cell Signaling Technology) in PBS with 0.1% Tween® 20 (PBS-T). Primary antibodies were incubated at 4° C. overnight, secondary antibodies were incubated at room temperature for 1 h. Super Signal West Dura (#34076, Thermo Fisher Scientific) or Super Signal West Pico (#34087, Thermo Fisher Scientific) were used to visualize immunoreactive bands imaged by G:BOX Chemi XT4:BOX-CHEMI-XT4, Syngene). Primary Antibodies used in this study: CPT1A: (Abcam #ab128568), ATF4: (CST #11815), CHOP: (CST #2895).
# MIN6 cells [3] = test: ER calcium levels (Fluo4, thapsigargin, FLIPR Tetra); type: cell-based, mouse; conditions: FFA treatment 24 h, relative to negative control (BSA)
# Experimental: MIN6 cells were plated in 384 well plates (Aurora, Black 384 SQ Well 188 micron Film, #1022-10110) and treated with the FFA library for 24 h prior to readout. Cells were carefully washed three times with HBSS (with calcium, Thermo Fisher Scientific, #14025076) using an automated simultaneous pipettor (analytikjena CyBio® Well vario) and incubated with the fluorescent calcium indicator Fluo4 (2 μM, Life Technologies, #F14202) in DMEM without additions for 1 h at room temperature. Then, cells were washed again in HBSS (with calcium) and incubated for another 30 min at room temperature in DMEM without additions. Just before the readout, cells were washed in final calcium free assay buffer solution (140 mM NaCl, 5 mM Kcl, 10 mM HEPES, 2 mM MgCl2, 10 mM EGTA, 10 mM Glucose) and left with 25 ul assay volume per well. Assay plates were immediately transferred to the FLIPR Tetra® High-Throughput Cellular Screening System. The plate was recorded with a frequency of 1 Hz for 10 min. Baseline was recorded for 30 s before the automated liquid transfer system of the FLIPR added the SERCA inhibitor Thapsigargin (final concentration 10 μM) in calcium free assay buffer. The resulting passive efflux of calcium from the ER induced a transient cytosolic fluorescence signal and the peak amplitudes were used to indirectly quantify ER calcium levels (See Extended Data FIG. 3d). The resulting trajectories were corrected for a pipetting artifact and baseline normalized. Log 2 Fold changes were calculated according to plate location specific negative (BSA) controls. The exclusion of one outlier/FFA/plate (n=5) based on a 3 sigma cutoff was allowed. P-values were calculated with Student's t-test (two-sided) and corrected for multiple testing (Benjamin & Hochberg).
# [4] = Toxicity against human pancreatic islet cells (C-peptide positive cell count); type: cell-based; conditions: female, dissociated human pancreatic islet cells; human islet cells, 120 hours; relative to the C3 and tested C4 free fatty acids; read-out: decrease of human pancreatic cell viability
# Experimental: as §1
# NF-κB p65/RELA = test: RELA nuclear translocation, immunofluorescence; type: cell-based, mouse; conditions: MIN6 cells, 18 hours, BSA negative control
# Experimental: Cells grown on 384 well CellCarrier Ultra microplates (#6057308, PerkinElmer) were fixed 10 min in PBS containing 4% PFA (Electron Microscopy Sciences), permeabilized 15 min in 0.5% Triton X-100 (Sigma-Aldrich), blocked for 1 h in blocking reagent (100 mM Tris HCL pH8; 150 mM NaCL; 5 g/L Blocking Reagent (#11096176001, Roche)) and treated for 1.5 h with primary antibody diluted in blocking reagent (NF-κB p65/RELA, Rabbit monoclonal antibody, 1:200, (#8242, Cell Signaling Technology). Cells were washed three times in PBS and incubated for 0.5 h with fluorescent-labeled secondary antibody in blocking solution (1:500, Alexa Fluor 568 Goat anti-Rabbit IgG, (#A11036, Thermo Fisher Scientific)). Cytoplasmic actin filaments were stained with Phalloidin conjugated with Alexa 647 (1:40, #A22287, Thermo Fisher Scientific) and nuclei were counterstained with Hoechst (1:2000, #H3570, Thermo Fisher Scientific). Cells were washed three times in PBS and imaged using the Opera Phenix High Content Screening System, #HH14000000, Perkin Elmer). A minimum of nine fields was acquired per well using 20× water immersion objectives in a confocal mode. Image analysis was performed using the Harmony software (PerkinElmer). Cell nuclei were first identified using Hoechst staining and nuclear region was defined for each cell. Phalloidin staining was then used to detect and define the cytoplasmic region of the cell. RELA fluorescent intensity was measured separately in the nuclear and cytoplasmic regions and a threshold for a nuclear translocation was defined using negative (BSA) and positive (TNFα) controls. For each well the fraction of cells identified for RELA nuclear translocation was calculated.
# [5] = MIN6 cells, representative FFAs, 48 h
Compound,decrease of human pancreatic cell viability [1],apoptosis (caspase activity) and cell death (propidium iodide positive nuclei); cell viability (MIN6 cells [2]),induction of the UPR (ATF4 and CHOP protein abundance) (ATF4 and CHOP),ER Ca^2+ levels (peak amplitude after thapsigargin 10 μM) (MIN6 cells [3]),apoptosis (caspase activity) and cell death (propidium iodide positive nuclei); cell viability (MIN6 cells [2]; [5]),cytotoxicity at 120 h [4] [%],"human pancreatic cell viability ([1]; human islet cells, 250 μM, 500 μM, 1 mM, 120 hours, relative to C3 FFAs 9Z-octadecenoic acid, 6Z-octadecenoic acid and C4 FFA 10Z-nonadecenoic acid)",nuclear translocation of RELA (p65) (NF-κB p65/RELA)
"CCCCCCCC/C=C\CCCCCCCCCCCCC(=O)O [14Z-tricosenoic acid, 14(Z)-Tricosenoic acid]",more than 50%,,,,,,,
"CCCCCCCC/C=C\CCCCCCCCCCCCCC(=O)O [15Z-tetracosenoic acid, 15(Z)-Tetracosenoic acid]",more than 50%,,,,,,,
"CCCCC/C=C\C/C=C\C/C=C\C/C=C\CCCC(=O)O [AA, 5(Z),8(Z),11(Z),14(Z)-Eicosatetraenoic Acid]",,trended towards decreased viability,None,increased,,,,
"CCCCCCCC/C=C\CCCCCCCCCCCC(=O)O [EA, 13(Z)-Docosenoic acid]",,,upregulation of ATF4 and CHOP protein abundance; also recorded: inducing ATF4 and CHOP,significant reduction of ER Ca^2+ levels,consistently induced apoptosis and cell death; also recorded: reduced cell viability,> 50,decreased human pancreatic cell viability,translocated to the nucleus; also recorded: Complete translocation of RELA from the cytosol to the nucleus
"CCCCC/C=C\C/C=C\C/C=C\CCCCC(=O)O [GLA, gamma-linoleic acid]",,,None,increased,trended towards decreased viability,,,
"CCCCCCCC/C=C\CCCCCCCC(=O)O [OA, 9(Z)-Octadecenoic acid]",,not associated with changes in cell viability,None,near-baseline,,,,
"CCCCCCCCCCCCCCCC(=O)O [PA, Hexadecanoic acid]",,,upregulation of ATF4 and CHOP protein abundance; also recorded: inducing ATF4 and CHOP,significant reduction of ER Ca^2+ levels,,,,translocated to the nucleus
"CCCCCCCCCCC/C=C\CCCCC(=O)O [PSA, petroselenic acid]",,,None,near-baseline,not associated with changes in cell viability,,,moderate RELA translocation to the nucleus
